Source: patent publication US20100273649A1, “Fungicidal Mixtures III” (BASF SE, priority 2007, published 2010)
Like-named read-outs stand apart in the source and are kept apart here.

Key:
Format in all cases: cell-based
Botrytis cinerea = assay: Activity against grey mold caused by Botrytis cinerea in the microtiterplate test (Botrici)
Phytophthora infestans = conditions: active compound alone, 7 days after inoculation
Septoria tritici = assay: Activity against leaf blotch on wheat caused by Septoria tritici, microtiter test (Septtr); conditions: active compound alone, 7 days after inoculation
Pyricularia oryzae = conditions: active compound alone, 7 days after inoculation
[1] = Botrytis cinerea, 168 h, active compound alone, 1 ppm, 7 days after inoculation, read-out: Observed efficacy
[2] = Botrytis cinerea, 168 h, active compound alone, 4 ppm, 7 days after inoculation, read-out: Observed efficacy

For “zinc propylenebis(dithiocarbamate) polymer [Propineb]”, the Observed efficacy (Botrytis cinerea; active compound alone, 4 ppm, 7 days after inoculation) was 21%.

`Fc1ccc([C@]2(Cn3cncn3)O[C@H]2c2ccccc2Cl)cc1` (racemic) [Epoxiconazole, (2RS,3SR)-1-[3-(2-chlorophenyl)-2,3-epoxy-2-(4-fluorophenyl)propyl]-1H-1,2,4-triazole] was tested, and the Observed efficacy (Phytophthora infestans; 0.25 ppm) was 12%, the inhibition of growth at 0.063 ppm (Botrytis cinerea; Botrytis cinerea, 168 h, active compound alone, 0.063 ppm, 7 days after inoculation, read-out: Observed efficacy) was 4% and the Observed efficacy (Septoria tritici; 0.016 ppm) was 14%.

Work on `O=C(OCc1cccc(C(F)(F)F)c1)C(=Cc1ccccc1)C(O)c1cccnc1` (stereo not shown) [I.3, (3-trifluoromethylphenyl)methyl 2-[hydroxyl(pyridine-3-yl)methyl]-3-phenylacrylate] yielded an Observed efficacy (Phytophthora infestans; 1 ppm) of 8%, an Observed efficacy (Phytophthora infestans; 4 ppm) of 10% and an Observed efficacy (Pyricularia oryzae; 0.25 ppm) of 2%. The inhibition of growth at 1 ppm (Botrytis cinerea; [1]) was 9%, the inhibition of growth at 4 ppm (Botrytis cinerea; [2]) was 16% and the Observed efficacy (Septoria tritici; 0.063 ppm) was 51%.

`O=C1C2CC=CCC2C(=O)N1SC(Cl)(Cl)Cl` (stereo not shown) [Captan, 2-trichloromethylsulfanyl-3a,4,7,7a-tetrahydroisoindole-1,3-dione] was tested, and the Observed efficacy (Phytophthora infestans; 1 ppm) was 26% and the inhibition of growth at 1 ppm (Botrytis cinerea; [1]) was 64%.

Compound `Cc1cc(C)nc(Nc2ccccc2)n1` [Pyrimethanil, 4,6-di-methylpyrimidin-2-ylphenylamine] has an Observed efficacy (Septoria tritici; 16 ppm) of 50%.

Compound `Cc1ccc(C(C)NC(=O)[C@@H](NC(=O)OC(C)C)C(C)C)cc1` (stereo partly drawn) [Iprovalicarb, isopropyl [(1S)-2-methyl-1-(1-p-tolylethylcarbamoyl)propyl]carbamate] has an inhibition of growth at 1 ppm (Botrytis cinerea; Botrytis cinerea, 168 h, read-out: Observed efficacy) of 2%.

With `Cc1ccc(-c2c(Cl)nc(C#N)n2S(=O)(=O)N(C)C)cc1` [Cyazofamid, 4-chloro-2-cyano-N,N-dimethyl-5-(4-methylphenyl)-1H-imidazole-1-sulfonamide] the inhibition of growth at 0.25 ppm (Botrytis cinerea; Botrytis cinerea, 168 h, active compound alone, 0.25 ppm, 7 days after inoculation, read-out: Observed efficacy) was 0%.

In the case of `COC(=O)N(OC)c1ccccc1COc1ccn(-c2ccc(Cl)cc2)n1` [Pyraclostrobin, pyraclostrobin], the Observed efficacy (Pyricularia oryzae; 0.001 ppm) is reported as 38% and the Observed efficacy (Septoria tritici; 0.001 ppm) is reported as 21%.

Compound `C=C(C(=O)OCc1cccc(C(F)(F)F)c1)C(O)c1cccnc1` (stereo not shown) [I.1, (3-trifluoromethylphenyl)methyl 2-[hydroxyl(pyridine-3-yl)methyl]acrylate] has an Observed efficacy (Phytophthora infestans; 1 ppm) of 1%, an Observed efficacy (Phytophthora infestans; 4 ppm) of 0% and an Observed efficacy (Phytophthora infestans; 16 ppm) of 42%. It also gave an Observed efficacy (Pyricularia oryzae; 0.016 ppm) of 5%, an inhibition of growth at 4 ppm (Botrytis cinerea; [2]) of 5% and an Observed efficacy (Septoria tritici; 0.016 ppm) of 9%. For the same compound, the Observed efficacy (Septoria tritici; 16 ppm) was 47%.

With `O=C(Nc1ccccc1-c1ccc(Cl)cc1)c1cccnc1Cl` [Boscalid, 2-chloro-N-(4′-chlorobiphenyl-2-yl)nicotinamide] the inhibition of growth at 4 ppm (Botrytis cinerea; [2]) was 45%.

Work on `COC=C(C(=O)OC)c1ccccc1COc1cccc(C(F)(F)F)n1` [Picoxystrobin, methyl 3-methoxy-2-[2-(6-trifluoromethylpyridin-2-yloxymethyl)phenyl]acrylate] yielded an Observed efficacy (Phytophthora infestans; 0.25 ppm) of 66% and an Observed efficacy (Pyricularia oryzae; 0.016 ppm) of 21%.

Work on `N#Cc1c(Cl)c(Cl)c(Cl)c(C#N)c1Cl` [Chlorothalonil, 2,4,5,6-tetrachloroisophthalonitrile] yielded an Observed efficacy (Phytophthora infestans; 0.25 ppm) of 20%.
